Reference: patent US8399430B2, “Alkylated semi synthetic glycosaminoglycosan ethers, and methods for making and using thereof” (University of Utah Research Foundation, priority 2008, dated 2013)

Experiments:
P-Selectin/PSGL = target: T1, P-Selectin/PSGL (Homo sapiens, UniProt P16109); assay: U937 monocyte binding to P-selectin (cell binding assay); details: Table 2; U937 binding to P-selectin-Fc
T1 construct: purchased R&D Systems (Minneapolis, Minn.)
Description: (§1) Cell Binding Assays. The effect of SAGEs on binding of U937 monocytes to P-selectin or RAGE was studied in high-bind micro plates coated with 8 μg/ml protein A ([…]) in 0.2 M carbonate-bicarbonate buffer (pH 9.4). Plates were washed with phosphate buffered saline containing 1% BSA (PBS-BSA), and P-selectin-Fc or RAGE-Fc chimera (50 μL containing 1 μg) was added to each well and incubated for 2 h at room temperature or overnight at 4° C., respectively. Following incubation, wells were washed twice with PBS-BSA. […] As a negative control, 50 μL of 10 mM EDTA was added to select wells to prevent cell binding through sequestration of calcium. At the end of the incubation period, 50 μL of U937 cells (10^5 cells/well, calcein-labeled according to manufacturer's instructions) were added to each well and plates were incubated an additional 30 min at room temperature. The wells were then washed thrice with PBS, and bound cells were lysed by addition of 100 μL of Tris-TritonX-100 containing buffer. Fluorescence was measured on a microplate reader using excitation of 494 nm and emission of 517 nm.

RAGE/Mac-1 = target: T2, RAGE/Mac-1 (Homo sapiens, UniProt Q15109); assay: U937 monocyte binding to RAGE (cell binding assay); details: Table 2; U937 binding to RAGE-Fc
T2 construct: purchased R&D Systems (Minneapolis, Minn.)
T2 sequence (Q15109 with tags, fused parts or gaps limits assumed): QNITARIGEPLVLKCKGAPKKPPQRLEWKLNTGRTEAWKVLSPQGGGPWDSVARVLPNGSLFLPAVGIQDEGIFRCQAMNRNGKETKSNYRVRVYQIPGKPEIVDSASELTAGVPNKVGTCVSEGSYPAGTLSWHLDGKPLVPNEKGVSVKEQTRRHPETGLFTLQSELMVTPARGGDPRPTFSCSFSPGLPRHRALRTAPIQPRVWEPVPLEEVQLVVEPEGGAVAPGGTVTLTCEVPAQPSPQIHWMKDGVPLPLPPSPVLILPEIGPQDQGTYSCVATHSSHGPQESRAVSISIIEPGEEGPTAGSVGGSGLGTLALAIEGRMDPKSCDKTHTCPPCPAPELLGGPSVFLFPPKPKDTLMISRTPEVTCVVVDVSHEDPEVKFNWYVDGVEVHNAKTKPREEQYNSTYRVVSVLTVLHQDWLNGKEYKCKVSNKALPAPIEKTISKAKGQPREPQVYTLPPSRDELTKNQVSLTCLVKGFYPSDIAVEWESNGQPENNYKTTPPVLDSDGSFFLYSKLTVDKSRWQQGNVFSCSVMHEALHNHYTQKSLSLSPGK
Description: as §1

RAGE/CML-BSA = target: T3, RAGE/CML-BSA (Homo sapiens, UniProt Q15109); assay: Solid phase binding assay, RAGE to CML-BSA; details: Table 2
T3 construct: purchased R&D Systems (Minneapolis, Minn.)
T3 sequence (Q15109 with tags, fused parts or gaps limits assumed): as above
Description: (§2) Solid phase binding assays. Solid phase binding assays were used to study the ability of SAGEs to inhibit RAGE binding to its ligands. For studies of the effect of SAGEs on RAGE binding to its ligands, polyvinyl 96-well plates were coated with 5 μg/well of specific ligand (CML-BSA, HMGB-I or S100b calgranulin). Plates were incubated overnight at 4° C. and washed thrice with PBS-0.05% Tween-20 (PBST). Separately, RAGE-Fc chimera (100 μL containing 0.5 μg/ml in PBST-0.1% BSA) was incubated with an equal volume of serially diluted SAGEs (0.001 to 1,000 μg/ml in PBST-BSA) overnight at 4° C. The following day, 50 μL of RAGE-SAGE mix was transferred to each respective ligand-coated well and incubated at 37° C. for 2 h. Wells were then washed four times with PBST. To detect bound RAGE, 50 μL of anti-RAGE antibody (0.5 μg/ml) was added to each well, the mixture was incubated for 1 h at room temperature, and wells were washed again four times with PBST. Horse-radish peroxidase conjugated secondary antibody (1:10,000 antibody dilution in PBST; 50 μL per well) was added, wells were incubated for 1 h at room temperature, and then washed once with PBST. A colorimetric reaction was initiated by addition of 50 μL of tetramethyl benzidine chromogen (TMB single solution chromogen) and terminated after 15 min by addition of 50 μL of 1 N HCl. Absorbance at 450 nm was read using an automated microplate reader.

RAGE/S100B = target: T4, RAGE/S100B (Homo sapiens, UniProt Q15109); assay: Solid phase binding assay, RAGE to S100b calgranulin; details: Table 2
T4 construct: purchased R&D Systems (Minneapolis, Minn.)
T4 sequence (Q15109 with tags, fused parts or gaps limits assumed): as above
Description: as §2

RAGE/HMGB1 = target: T5, RAGE/HMGB1 (Homo sapiens, UniProt Q15109); assay: Solid phase binding assay, RAGE to HMGB-1 (amphoterin); details: Table 2
T5 construct: purchased R&D Systems (Minneapolis, Minn.)
T5 sequence (Q15109 with tags, fused parts or gaps limits assumed): as above
Description: as §2

human leukocyte elastase = target: T6, human leukocyte elastase (Homo sapiens, UniProt P08246); assay: Human leukocyte elastase activity assay, chromogenic substrate; assay type: biochemical; details: Table 2
T6 sequence (P08246 30-267): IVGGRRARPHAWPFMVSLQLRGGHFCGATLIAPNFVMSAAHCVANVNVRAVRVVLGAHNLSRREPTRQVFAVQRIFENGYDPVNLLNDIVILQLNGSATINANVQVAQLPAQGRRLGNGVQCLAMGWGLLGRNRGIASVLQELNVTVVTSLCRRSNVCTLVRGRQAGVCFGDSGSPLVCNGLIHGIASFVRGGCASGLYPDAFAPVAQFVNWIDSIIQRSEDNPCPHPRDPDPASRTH
Description: Enzymatic assays. […] Nat Biotech 26:669-675, 2008).

Xa = assay: Anti-Xa anticoagulant activity; assay type: biochemical
IIa = assay: Anti-IIa anticoagulant activity; assay type: biochemical
[1] = target: T7, Hageman factor (Factor XII) (Homo sapiens, UniProt P00748); assay: Activation of Hageman factor (Factor XII) in pooled human plasma, amidolytic activity; details: Table 2, table line reads IC50 values
T7 sequence (P00748 20-615): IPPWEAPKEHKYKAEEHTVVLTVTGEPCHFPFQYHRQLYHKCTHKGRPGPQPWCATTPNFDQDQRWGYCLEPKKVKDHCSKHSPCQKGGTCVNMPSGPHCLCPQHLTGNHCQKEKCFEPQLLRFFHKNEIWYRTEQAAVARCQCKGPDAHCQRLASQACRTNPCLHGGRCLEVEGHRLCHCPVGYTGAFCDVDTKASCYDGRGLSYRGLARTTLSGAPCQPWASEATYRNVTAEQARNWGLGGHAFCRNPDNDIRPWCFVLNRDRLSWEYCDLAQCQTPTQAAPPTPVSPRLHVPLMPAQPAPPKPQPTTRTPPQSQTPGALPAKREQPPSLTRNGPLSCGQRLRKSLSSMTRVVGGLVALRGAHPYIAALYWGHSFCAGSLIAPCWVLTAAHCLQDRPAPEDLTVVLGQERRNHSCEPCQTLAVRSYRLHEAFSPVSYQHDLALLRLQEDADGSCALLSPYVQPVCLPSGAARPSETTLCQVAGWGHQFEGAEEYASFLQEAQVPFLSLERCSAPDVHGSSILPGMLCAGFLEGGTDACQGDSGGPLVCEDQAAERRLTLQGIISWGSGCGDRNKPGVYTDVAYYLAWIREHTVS
Description: Enzymatic assays. […] Pooled human plasma (5 μl) was incubated with 100 μl of SAHA (0.1 to 1000 μg/ml) in 0.05 M HEPES containing Triton X-100 for 5 min at 5° C.
SAGEs were screened for their ability to stimulate intrinsic coagulation (activation of Hageman factor). Pooled human plasma was incubated with heparin or low molecular weight (Lmw) sulfated and fluoroalkylated HAs (Lmw-OSFHA-1, Lmw-OSFHA-2) and amidolytic activity was determined using the substrate D-cyclohydrotyrosyl-Gly-Arg-p-NA.

T1 sequence (P16109 with tags, fused parts or gaps limits assumed): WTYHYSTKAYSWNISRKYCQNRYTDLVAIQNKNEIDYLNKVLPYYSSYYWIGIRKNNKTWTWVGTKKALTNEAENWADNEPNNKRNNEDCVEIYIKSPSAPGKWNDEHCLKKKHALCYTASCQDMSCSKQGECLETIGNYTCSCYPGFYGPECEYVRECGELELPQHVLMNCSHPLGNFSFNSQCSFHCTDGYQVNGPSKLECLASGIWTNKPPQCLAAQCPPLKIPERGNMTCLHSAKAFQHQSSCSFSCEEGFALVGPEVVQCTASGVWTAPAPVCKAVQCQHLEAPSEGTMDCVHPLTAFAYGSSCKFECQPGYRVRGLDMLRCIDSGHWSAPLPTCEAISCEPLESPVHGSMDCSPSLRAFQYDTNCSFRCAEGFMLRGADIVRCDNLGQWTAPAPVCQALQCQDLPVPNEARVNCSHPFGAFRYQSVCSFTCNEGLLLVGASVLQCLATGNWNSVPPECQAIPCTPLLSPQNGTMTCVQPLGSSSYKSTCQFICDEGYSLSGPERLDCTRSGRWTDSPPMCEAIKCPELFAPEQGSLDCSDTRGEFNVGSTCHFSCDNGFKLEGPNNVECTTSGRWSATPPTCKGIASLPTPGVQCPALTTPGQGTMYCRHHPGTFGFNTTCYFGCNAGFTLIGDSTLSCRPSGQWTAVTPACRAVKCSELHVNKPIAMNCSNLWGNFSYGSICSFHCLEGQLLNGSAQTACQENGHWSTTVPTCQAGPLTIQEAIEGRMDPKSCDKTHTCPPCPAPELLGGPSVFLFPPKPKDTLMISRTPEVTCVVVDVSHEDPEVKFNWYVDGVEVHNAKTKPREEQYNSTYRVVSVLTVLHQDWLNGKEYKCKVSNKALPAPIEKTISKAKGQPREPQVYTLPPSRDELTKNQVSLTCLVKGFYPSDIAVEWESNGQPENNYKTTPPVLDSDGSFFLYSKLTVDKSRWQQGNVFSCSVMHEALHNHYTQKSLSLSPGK

## Heparin [reference compound]
P-Selectin/PSGL
  P-Selectin/PSGL: 0.3 µg/mL
RAGE/Mac-1
  RAGE/Mac-1: 0.11 µg/mL
RAGE/CML-BSA
  RAGE/CML-BSA: 0.39 µg/mL
RAGE/S100B
  RAGE/S100B: 1.29 µg/mL
RAGE/HMGB1
  RAGE/HMGB1: 0.04 µg/mL
Human leukocyte elastase
  Leukocyte Elastase: 0.21 µg/mL
Xa
  anti-Xa anticoagulant activity: 150 U/mg
IIa
  anti-IIa anticoagulant activity: 150 U/mg
[1]
  Hageman Factor: 0.4 µg/mL
